Results on 17 compounds are retold here after ChEMBL document CHEMBL5360560, “Anti-Vibrio potential of natural products from marine microorganisms” (Eur J Med Chem, 2023).

The test system of test [1] is Vibrio harveyi. In words: Antimicrobial activity against Vibrio harveyi assessed as bacterial growth inhibition by two fold dilution assay. In kind it is functional.
In test [2] the test system is Vibrio rotiferianus. In words: Antibacterial activity against Vibrio rotiferianus MCCC E385 assessed as bacterial growth inhibition measured after 24 hrs by resazurin dye based assay. In kind it is functional. A general note: Resazurin is reduced to fluorescent resorufin, in cell work by metabolically active cells.
For test [3], the system named is Vibrio alginolyticus. In words: Antimicrobial activity against Vibrio alginolyticus QDIO-7 assessed as bacterial growth inhibition by microtiter plate reader analysis. The class given is functional.
Test [4] has as its system Vibrio vulnificus. In words: Antimicrobial activity against Vibrio vulnificus QDIO-4 assessed as bacterial growth inhibition by microtiter plate reader analysis. In kind it is functional.
Test [5] concerns Vibrio vulnificus. In words: Antibacterial activity against Vibrio vulnificus MCCC E1758 assessed as bacterial growth inhibition measured after 24 hrs by resazurin dye based assay. The class given is functional.
Test [6] has as its system Vibrio anguillarum. The test is described as follows: Antimicrobial activity against Vibrio anguillarum QDIO-1 assessed as bacterial growth inhibition. In kind it is functional.
Test [7] deals with Vibrio proteolyticus. In words: Antimicrobial activity against Vibrio proteolyticus assessed as bacterial growth inhibition. In kind it is functional.
Test [8] has as its system Vibrio harveyi. The test is described as follows: Antimicrobial activity against Vibrio harveyi assessed as bacterial growth inhibition. In kind it is functional.
The subject of test [9] is Vibrio natriegens. In words: Antimicrobial activity against Vibrio natriegens assessed as bacterial growth inhibition. The class given is functional.
Test [10] relates to Vibrio sp. The test is described as follows: Antibacterial activity against Vibrio sp. assessed as bacterial growth inhibition by GC-MS analysis. In kind it is functional.
Test [11] concerns Vibrio sp. The test is described as follows: Antibacterial activity against Vibrio sp. assessed as bacterial growth inhibition relative to control. The class given is functional.
In test [12] the test system is Vibrio vulnificus. In words: Antibacterial activity against Vibrio vulnificus MCCC E1758 assessed as cell growth inhibition measured after 24 hrs by resazurin dye based assay. In kind it is functional.
Test [13] relates to Vibrio campbellii. In words: Antibacterial activity against Vibrio campbellii MCCC E333 assessed as cell growth inhibition measured after 24 hrs by resazurin dye based assay. In kind it is functional.
The test system of test [14] is Vibrio rotiferianus. The test is described as follows: Antibacterial activity against Vibrio rotiferianus MCCC E385 assessed as cell growth inhibition measured after 24 hrs by resazurin dye based assay. In kind it is functional.
The subject of test [15] is Vibrio mediterranei. The test is described as follows: Antimicrobial activity against Vibrio mediterranei assessed as bacterial growth inhibition. The class given is functional.
Test [16] concerns Vibrio scophthalmi. In words: Antimicrobial activity against Vibrio scophthalmi assessed as bacterial growth inhibition. The class given is functional.
Test [17] concerns Vibrio brasiliensis. In words: Antimicrobial activity against Vibrio brasiliensis assessed as bacterial growth inhibition. The class given is functional.
For test [18], the system named is Vibrio anguillarum. The test is described as follows: Antimicrobial activity against Vibrio anguillarum assessed as bacterial growth inhibition by well diffusion method. The class given is functional. Background: A growth-free zone around the sample is the usual read-out of agar diffusion tests.
Test [19] concerns Vibrio alginolyticus. The test is described as follows: Antibacterial activity against Vibrio alginolyticus assessed as bacterial growth inhibition. The class given is functional.
In test [20] the test system is Vibrio cholerae. The test is described as follows: Antibacterial activity against Vibrio cholerae assessed as zone of inhibition measured after 24 to 48 hrs by agar well diffusion assay. The class given is functional. Particulars: time 24-48 hrs.
Test [21] relates to Vibrio parahaemolyticus. The test is described as follows: Antibacterial activity against Vibrio parahaemolyticus assessed as zone of inhibition measured after 24 to 48 hrs by agar well diffusion assay. The class given is functional. Particulars: time 24-48 hrs.
Test [22] has as its system Vibrio alginolyticus. The test is described as follows: Antibacterial activity against Vibrio alginolyticus assessed as zone of inhibition measured after 24 to 48 hrs by agar well diffusion assay. In kind it is functional. The following applies: time 24-48 hrs.
Test [23] relates to Vibrio parahaemolyticus. The test is described as follows: Antibacterial activity against Vibrio parahaemolyticus assessed as bacterial growth inhibition by broth microdilution. The class given is functional. Background: Dilution methods test growth across graded concentrations, often in twofold steps.
Test [24] deals with Vibrio harveyi. The test is described as follows: Antimicrobial activity against Vibrio harveyi BB120 assessed as bacterial growth reduction by bioluminescence based Quorum-Sensing assay. The class given is functional, organism-based.
In test [25] the test system is Vibrio harveyi. The test is described as follows: Antimicrobial activity against Vibrio harveyi QDIO-7 assessed as bacterial growth inhibition by microplate reader assay. In kind it is functional.
Test [26] has as its system Vibrio vulnificus. The test is described as follows: Antimicrobial activity against Vibrio vulnificus QDIO-7 assessed as bacterial growth inhibition by microplate reader assay. The class given is functional.
The test system of test [27] is Vibrio campbellii. In words: Antimicrobial activity against Vibrio campbellii MCCC E333 assessed as bacterial growth inhibition by resazurin dye based assay. The class given is functional.
In test [28] the test system is Vibrio vulnificus. In words: Antimicrobial activity against Vibrio vulnificus MCCC E1758 assessed as bacterial growth inhibition by resazurin dye based assay. In kind it is functional.

Converted amounts (≈) assume the structure as drawn.

As for `COC(=O)C1=CC(=O)C=C(OC)C12Oc1cc(C)cc(OC)c1C2=O` (stereo not drawn) [TRYPACIDIN], in [1], the MIC (in general, the smallest concentration in the dilution series that meets the test's criterion for growth inhibition) came out at 31.2 µg/mL (≈ 90.6 µM). `CC[C@H](C)/C=C/C1=CC2=C(Cl)C(=O)[C@@]3(C)OC(=O)C(C(=O)[C@@H](C)[C@@H](C)O)=C3C2=CN1NC(=O)c1ccc(O)cc1`: in test [2], the minimum inhibitory concentration (MIC) is 7.3 µg/mL (≈ 12.9 µM).

Take `CC(=O)OC/C=C\c1ccc(O)cc1CO`: the MIC in test [3] and in test [4] was 8 µg/mL throughout. With `CC[C@H](C)/C=C/C1=CC2=C(Cl)C(=O)[C@@]3(C)OC(=O)C(C(=O)[C@@H](C)[C@@H](C)O)=C3C2=CN1CCOCCO`, the MIC in test [5] is 7.4 µg/mL (≈ 14.2 µM).

As for `CC(C)[C@@H](C)/C=C/[C@@H](C)[C@H]1CC[C@@H]2[C@]1(C)CC[C@H]1[C@]23O[C@H]3C(=O)C2=CC(=O)CC[C@@]21C`, in [6], the MIC is 32 µg/mL (≈ 75.4 µM). As to `C=CC(C)(C)C1(CC2NC(=O)c3ccccc3N(C)C2=O)C(=O)N(O)c2ccccc21` (stereo not drawn), the MIC in test [7] amounted to 0.1 µg/mL (≈ 0.238 µM); in test [8], 1 µg/mL (≈ 2.38 µM); in test [9], 1 µg/mL (≈ 2.38 µM). Regarding `O=C1CCC2(CCC(=O)N2)N1`, the MIC in [10] is at most 0.78 µg/mL. Consider `COc1cc(-c2ccc(O)cc2)c(OC)c(O)c1-c1ccc(O)cc1` [TERPHENYLLIN], for which the “inhibition (INH)” value in test [11] was over 80%.

For `COc1cc2oc3c(OC)c(-c4ccc(O)c(CC=C(C)C)c4)cc(OC)c3c2cc1O`, the MIC in test [12] was 7.77 µg/mL (≈ 17.9 µM); in test [13] it was 15.6 µg/mL (≈ 35.9 µM); in test [14] it was 7.75 µg/mL (≈ 17.8 µM).

For `C=C(C(C)C)[C@H](C[C@@H](C)[C@H]1CC[C@H]2[C@@H]3C(=O)C=C4C[C@@H](O)CC[C@]4(C)[C@H]3CC[C@]12C)OC(C)=O`, the MIC in [15] came to 8 µg/mL (≈ 17 µM); in [16], 8 µg/mL (≈ 17 µM); in test [17], 9 µg/mL (≈ 19.1 µM). Consider `C=C(C)[C@H]1O[C@H]2CC[C@@]3(C)[C@@](O)(CC[C@@]4(O)[C@@H]5OC(C)(C)[C@H]6C[C@@H]7C(=C)Cc8c(Cl)cc9[nH]c(c5c9c8[C@@]76O)[C@]34C)[C@]23O[C@@H]3[C@H]1O`, for which the MIC in test [18] was 16 µg/mL (≈ 24.6 µM). Turning to `CCCCCCC(O)CCCCCC/C=C/C(O)C1C=C(NC(C)=O)C(=O)O1` (stereo not drawn), in test [19], the MIC was 8 µg/mL (≈ 20.2 µM). Turning to `CCCCCCCCCCCCC(=O)NCCC(C)C`, the “inhibition zone (IZ)” value in test [20] is 13.7 mm; in [21] it was 9.66 mm; in [22], 16.3 mm. As to `COC(=O)[C@@H](C)CCc1cc(O)c(C)cc1O`, the minimal inhibitory concentration (MIC) in test [23] worked out at 12.5 µg/mL (≈ 52.5 µM).

With `CC(C)CC(=O)NCCc1ccccc1`, in test [24], the concentration giving a half-maximal response (EC50) (commonly the concentration giving half of the maximal effect) came to 9 µg/mL (≈ 43.8 µM). Turning to `COC(=O)CCc1oc2cc(O)cc(C)c2c1-c1cc(O)c(C)c(O)c1C`, the MIC in test [25] was 32 µg/mL; in test [26], 64 µg/mL.

Turning to `Cc1c(O)cc(O)cc1[C@H](C)[C@@H](C)OC=O`, the figures for the MIC in [27] and in [28] were 15.6 µg/mL (≈ 69.6 µM) and 15.7 µg/mL (≈ 70 µM), respectively.
